Data on eight molecules can be found in PubChem BioAssay AID252 (DTP/NCI, 2004).

“And” between values parts separate entries of the source, which are not always exact repeats. Equal values may be shown once. Inconclusive results and toxic doses are left out.

In this assay the test system is BDF1 mice, intracerebral L1210 leukemia, survival T/C. As to the kind of experiment: NCI In Vivo Anticancer Drug Screen. Data for tumor model L1210 Leukemia (intracerebral) in B6D2F1 (BDF1) mice. The settings on record: endpoint: mean survival time, higher = longer survival. The method in brief: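 Antitumour effect is judged in mice with transplanted tumour by comparing survival of treated (T) against vehicle-dosed (C) groups as T/C.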

Take `O=NN(CCCl)C(=O)N[C@H]1CCCC[C@H]1Cl`: the T/C by setting is: (dose: 8.0 mg/kg/injection, schedule: Q01DX001 (ip), vehicle: carboxymethylcellulose (CMC)) 103 % of control; (dose: 12.0 mg/kg/injection, schedule: Q01DX001 (ip), vehicle: carboxymethylcellulose (CMC)) 106 % of control and 110 % of control and 90 % of control; (dose: 18.0 mg/kg/injection, schedule: Q01DX001 (ip), vehicle: carboxymethylcellulose (CMC)) 106 % of control; (dose: 40.0 mg/kg/injection, schedule: Q01DX001 (ip), vehicle: carboxymethylcellulose (CMC)) 117 % of control; (dose: 51.0 mg/kg/injection, schedule: Q01DX001 (ip), vehicle: carboxymethylcellulose (CMC)) 281 % of control and 306 % of control; (dose: 54.0 mg/kg/injection, schedule: Q01DX001 (ip), vehicle: carboxymethylcellulose (CMC)) 198 % of control. Also, the T/C runs as follows: (dose: 62.0 mg/kg/injection, schedule: Q01DX001 (ip), vehicle: carboxymethylcellulose (CMC)) 159 % of control and 165 % of control and 176 % of control; (dose: 72.0 mg/kg/injection, schedule: Q01DX001 (ip), vehicle: carboxymethylcellulose (CMC)) 251 % of control; (dose: 90.0 mg/kg/injection, schedule: Q01DX001 (ip), vehicle: carboxymethylcellulose (CMC)) 209 % of control and 221 % of control and 270 % of control; (dose: 101.0 mg/kg/injection, schedule: Q01DX001 (ip), vehicle: carboxymethylcellulose (CMC)) 413 % of control and 550 % of control; (dose: 108.0 mg/kg/injection, schedule: Q01DX001 (ip), vehicle: carboxymethylcellulose (CMC)) 307 % of control; (dose: 135.0 mg/kg/injection, schedule: Q01DX001 (ip), vehicle: carboxymethylcellulose (CMC)) 278 % of control and 305 % of control. Moreover, the T/C (dose: 203.0 mg/kg/injection, schedule: Q01DX001 (ip), vehicle: carboxymethylcellulose (CMC)) was 119 % of control and 94 % of control.

For the molecule `Cc1c(O)ccc(=O)n1O`, the T/C by setting is: (dose: 49.0 mg/kg/injection, schedule: Q01DX Z (ip), vehicle: other) 98 % of control; (dose: 73.0 mg/kg/injection, schedule: Q01DX Z (ip), vehicle: other) 96 % of control; (dose: 110.0 mg/kg/injection, schedule: Q01DX Z (ip), vehicle: other) 93 % of control; (dose: 165.0 mg/kg/injection, schedule: Q01DX Z (ip), vehicle: other) 110 % of control; (dose: 247.0 mg/kg/injection, schedule: Q01DX Z (ip), vehicle: other) 92 % of control.

In the case of `O=NN(CCCl)C(=O)NC1Cc2ccccc2C1`, the T/C reads like this: (dose: 55.0 mg/kg/injection, schedule: Q01DX001 (ip), vehicle: other) 116 % of control; (dose: 84.0 mg/kg/injection, schedule: Q01DX001 (ip), vehicle: other) 123 % of control; (dose: 188.0 mg/kg/injection, schedule: Q01DX001 (ip), vehicle: other) 94 % of control.

As for `CC[n+]1c(-c2ccccc2)c2cc(N)ccc2c2ccc(N)cc21`, the T/C was 104 % of control (dose: 1.25 mg/kg/injection, schedule: Q01DX Z (ip), vehicle: saline); 100 % of control (dose: 2.5 mg/kg/injection, schedule: Q01DX Z (ip), vehicle: saline); 101 % of control (dose: 5.0 mg/kg/injection, schedule: Q01DX Z (ip), vehicle: saline); 100 % of control (dose: 7.5 mg/kg/injection, schedule: Q01DX Z (ip), vehicle: saline); 86 % of control (dose: 15.0 mg/kg/injection, schedule: Q01DX Z (ip), vehicle: saline).

`O=NN(CCCl)C(=O)Nc1ccc2c(c1)CCCC2`: the T/C is 157 % of control (dose: 125.0 mg/kg/injection, schedule: Q01DX001 (ip), vehicle: carboxymethylcellulose (CMC)); 150 % of control (dose: 178.0 mg/kg/injection, schedule: Q01DX001 (ip), vehicle: carboxymethylcellulose (CMC)); 97 % of control (dose: 187.0 mg/kg/injection, schedule: Q01DX001 (ip), vehicle: carboxymethylcellulose (CMC)); 100 % of control (dose: 238.0 mg/kg/injection, schedule: Q01DX001 (ip), vehicle: carboxymethylcellulose (CMC)).

Turning to `C1CN1c1nc(N2CC2)nc(N2CC2)n1`, the T/C was 113 % of control (dose: 0.15 mg/kg/injection, schedule: Q01DX Z (ip), vehicle: saline); 119 % of control (dose: 0.25 mg/kg/injection, schedule: Q01DX Z (ip), vehicle: saline); 160 % of control (dose: 0.5 mg/kg/injection, schedule: Q01DX Z (ip), vehicle: saline); 156 % of control (dose: 0.75 mg/kg/injection, schedule: Q01DX Z (ip), vehicle: saline); 124 % of control (dose: 1.0 mg/kg/injection, schedule: Q01DX Z (ip), vehicle: saline); 97 % of control (dose: 1.5 mg/kg/injection, schedule: Q01DX Z (ip), vehicle: saline). Also, the T/C (dose: 2.1 mg/kg/injection, schedule: Q01DX001 (ip), vehicle: saline) was 153 % of control and the T/C (dose: 3.2 mg/kg/injection, schedule: Q01DX001 (ip), vehicle: saline) is 182 % of control.

Take `CCN(CC)c1ccc2cc3ccc(=[N+](CC)CC)cc-3oc2c1`: the T/C was 97 % of control (dose: 8.0 mg/kg/injection, schedule: Q01DX001 (ip), vehicle: saline); 96 % of control (dose: 13.0 mg/kg/injection, schedule: Q01DX001 (ip), vehicle: saline); 100 % of control (dose: 19.0 mg/kg/injection, schedule: Q01DX001 (ip), vehicle: saline).

As to `CCN(CC)CCNc1ccc(CO)c2sc3ccccc3c(=O)c12`, the T/C runs as follows: (dose: 1.0 mg/kg/injection, schedule: Q01DX005 (ip), vehicle: saline) 97 % of control; (dose: 2.0 mg/kg/injection, schedule: Q01DX005 (ip), vehicle: saline) 96 % of control; (dose: 4.0 mg/kg/injection, schedule: Q01DX005 (ip), vehicle: saline) 100 % of control; (dose: 8.0 mg/kg/injection, schedule: Q01DX005 (ip), vehicle: saline) 98 % of control; (dose: 16.0 mg/kg/injection, schedule: Q01DX005 (ip), vehicle: saline) 100 % of control; (dose: 32.0 mg/kg/injection, schedule: Q01DX005 (ip), vehicle: saline) 107 % of control. Further, where the note is “dose: 64.0 mg/kg/injection, schedule: Q01DX005 (ip), vehicle: saline”, the T/C is 123 % of control.
